Measurements: patent US11795460B2, “Compositions and methods for TTR gene editing and treating ATTR amyloidosis” (Intellia Therapeutics, Inc., priority 2017, dated 2023)

Key:
TTR [1] = test: TTR editing in HEK293_Cas9 cells transfected with dgRNAs (Table 4); format: cell-based, human; settings: HEK293_Cas9 cells (constitutively express Spy Cas9) transfected with dgRNAs
In short: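 Spy Cas9-expressing HEK293 cells were transfected by lipofection with crRNA (25 nM) plus trRNA (25 nM) and harvested at 24, 48 or 72 h. The target site was PCR-amplified and sequenced on MiSeq. Percent editing is reads with indels or substitutions over total reads.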

TTR [2] = test: TTR editing in primary human hepatocytes electroporated with Spy Cas9 protein loaded with dgRNAs (Table 7); format: cell-based; settings: dgRNA electroporated with Spy Cas9 protein (RNP)
In short: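 Primary human or cynomolgus hepatocytes electroporated (Lonza P3 buffer, program EX-147) with Spy Cas9 RNP carrying pre-annealed crRNA/trRNA dual guides. Genomic DNA harvested at 24, 48 or 72 h; target amplicons sequenced by Illumina MiSeq. Percent editing = reads with indels or substitutions over total reads.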

TTR [3] = test: TTR editing in primary human hepatocytes transfected with Spy Cas9 mRNA and dgRNAs (Table 9); format: cell-based; settings: dgRNA co-transfected with Spy Cas9 mRNA (SEQ ID NO:2)
In short: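 PHH sequentially lipofected with Spy Cas9 mRNA (100 ng), then crRNA plus tracrRNA (25 nM each) dual-guide lipoplex. Cells harvested 24, 48 or 72 h post-transfection; TTR target amplicons sequenced on Illumina MiSeq, editing given as percent reads with indels or substitutions over total reads.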

TTR [4] = test: TTR editing in HepG2 cells transfected with Spy Cas9 mRNA and dgRNAs (Table 6); format: cell-based, human; settings: HepG2 cells co-transfected with Spy Cas9 mRNA (SEQ ID NO:2) and dgRNAs
In short: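 HepG2 cells were transfected sequentially by lipofection with Spy Cas9 mRNA (100 ng), then crRNA plus tracer RNA (25 nM each), and harvested at 24, 48 or 72 h. Editing was measured by amplicon NGS at the TTR target site as the fraction of reads with indels or substitutions.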

| Sequence | Avg % Deletion (TTR [1]) [%] | Avg % Edit (TTR [1]) [%] | Avg % Insert (TTR [1]) [%] | Avg % Deletion (TTR [2]) [%] | Avg % Edit (TTR [2]) [%] | Avg % Insert (TTR [2]) [%] | Avg % Deletion (TTR [3]) [%] | Avg % Edit (TTR [3]) [%] | Avg % Insert (TTR [3]) [%] | Avg % Deletion (TTR [4]) [%] | Avg % Edit (TTR [4]) [%] | Avg % Insert (TTR [4]) [%] |
| --- | --- | --- | --- | --- | --- | --- | --- | --- | --- | --- | --- | --- |
| AGUGAGUCUGGAGAGCUGCA (tested as dual guide RNA, chemistry not given here) [CR003359] | 19.40 | 37.75 | 18.35 | 7.50 | 63.77 | 56.33 | 7.33 | 32.93 | 25.67 | 15.65 | 64.44 | 48.79 |
| AUACCAGUCCAGCAAGGCAG (tested as dual guide RNA, chemistry not given here) [CR003338] | 47.66 | 52.42 | 4.76 | 2.13 | 83.03 | 80.87 | 2.73 | 36.30 | 33.73 | 2.60 | 68.00 | 65.40 |
| AUAGGAGUAGGGGCUCAGCA (tested as dual guide RNA, chemistry not given here) [CR003383] | 15.35 | 40.47 | 25.12 | 5.27 | 8.57 | 3.37 | 13.70 | 15.70 | 2.07 | 0.16 | 6.35 | 6.19 |
| AUGCAGCUCUCCAGACUCAC (tested as dual guide RNA, chemistry not given here) [CR003358] | 4.14 | 5.44 | 1.29 | 0.80 | 5.70 | 4.93 | 1.17 | 3.90 | 2.73 | 7.27 | 35.93 | 28.66 |
| AUUGGUGACGACAGCCGUGG (tested as dual guide RNA, chemistry not given here) [CR003389] | 23.87 | 34.18 | 10.30 | 0.50 | 27.67 | 27.20 | 2.83 | 44.27 | 41.47 | 4.57 | 31.84 | 27.27 |
| CAGAGGACACUUGGAUUCAC (tested as dual guide RNA, chemistry not given here) [CR003343] | 19.53 | 24.36 | 4.82 | 1.50 | 77.10 | 75.63 | 2.60 | 55.03 | 52.40 | 5.36 | 45.41 | 40.05 |
| CAUUGAUGGCAGGACUGCCU (tested as dual guide RNA, chemistry not given here) [CR003347] | 20.50 | 21.45 | 0.95 | 0.43 | 82.30 | 81.97 | 0.17 | 41.47 | 41.33 | 1.49 | 22.57 | 21.08 |
